Data on one molecule can be found in PMC6992764 (Nature Communications, 2020).

The target in one test is p53-MDM2 interaction (Homo sapiens, UniProt Q00987). Description: HTRF p53-MDM2 interaction counter assay. Type of test: binding. For orientation: In TR-FRET formats the signal depends on donor and acceptor labels being close together.
The test system of another test is THP-1 cells. Put plainly: Chemotaxis assay using TAXIScan. Type of test: cell-based, human. To be noted: DSF 50 µM, towards CCL2. The procedure:
The TAXIScan device (ECI, Tokyo, Japan) is an optically accessible horizontal chemotaxis apparatus consisting of an etched silicon substrate and a flat glass plate, which form two compartments separated by a 5-μm deep microchannel. THP-1 cells were applied through a hole connected to one of the compartments and aligned along the start line on the edge of the channel. Human CCL2 (10 ng mL^–1) was applied through a hole connected to the other compartment to form a concentration gradient in the channel. Time-lapse images were recorded every 30 s for 30 min and cell movement was analyzed using TAXIScan analyzer software (ECI, Tokyo, Japan).

Test [1] deals with Lewis lung carcinoma (LLC). Put plainly: LLC subcutaneous tumor-growth model. Type of test: in vivo, mice. The procedure: For evaluating subcutaneous tumor growth, LLC or B16 cells (5 × 10^5) in 50 μl PBS were inoculated subcutaneously into the right flanks of mice. Mice were euthanized when their tumor volumes reached 4000 mm^3. Tumor sizes were measured twice a week using calipers. Tumor volume was calculated using the following formula: Volume = (width)^2 × length/2. For the lung metastasis model, 1 × 10^6 LLC or B16 cells in 200 μl PBS were injected intravenously into mice. Mice were euthanized at day 10 after tumor injection for the LLC model and day 5–9 for the B16 model, and the lungs were isolated after perfusion with PBS via the left ventricle. Visible lung metastases were counted in the left lobe. The diameters of metastatic nodules in the lung lobe image were measured using ImageJ software. […]
Cells for flow cytometric analysis were prepared as follows: bone marrow cells were flushed from femurs, followed by incubation with ACK buffer to remove red blood cells. […] After blocking Fc receptors through incubation with an anti-mouse CD16/32 antibody (clone 2.4G2, dilution 1:100, Cat BE0307), cells were stained with fluorescence-labeled anti-mouse monoclonal antibodies. […] Flow cytometry data were obtained using a Gallios flow cytometer (Beckman Coulter) and analyzed with FlowJo software (version 10; FlowJo, LLC). […]

Where only a bound is given, the exact number is not on record here.

Chain of p53-MDM2 interaction (Q00987 whole entry): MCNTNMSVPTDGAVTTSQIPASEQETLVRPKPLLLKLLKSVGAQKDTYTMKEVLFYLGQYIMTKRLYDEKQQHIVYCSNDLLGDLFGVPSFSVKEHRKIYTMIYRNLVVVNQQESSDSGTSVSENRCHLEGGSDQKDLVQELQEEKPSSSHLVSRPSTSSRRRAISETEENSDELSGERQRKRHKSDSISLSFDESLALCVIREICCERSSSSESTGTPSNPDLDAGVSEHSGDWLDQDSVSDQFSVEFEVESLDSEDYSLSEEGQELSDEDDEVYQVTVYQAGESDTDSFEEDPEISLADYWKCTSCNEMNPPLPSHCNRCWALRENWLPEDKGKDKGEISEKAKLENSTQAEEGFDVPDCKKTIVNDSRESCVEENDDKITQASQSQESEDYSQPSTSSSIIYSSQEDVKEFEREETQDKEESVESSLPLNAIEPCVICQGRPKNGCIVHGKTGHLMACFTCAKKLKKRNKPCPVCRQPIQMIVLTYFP

What is called IC50 is the concentration that inhibits the measured activity by half. A low value points to greater potency in that assay. For `CCN(CC)C(=S)SSC(=S)N(CC)CC` [DSF, disulfiram], the “effect on p53-MDM2 interaction” value on p53-MDM2 interaction (HTRF) is “did not affect”. Further, at p53-MDM2 interaction (HTRF titration assay), the IC50 was greater than 1 µM. In the test with THP-1 cells, the chemotaxis directionality entry is recorded as “impaired” and the chemotaxis velocity result is on record as “impaired”. Besides, the “number of tumor-associated monocytes/macrophages” value in test [1] (day 20 after tumor inoculation) was “reduced”. In addition, the subcutaneous tumor growth entry in test [1] (oral DSF in diet (0.8 mg DSF/1 g CE-2) from 4 days after inoculation) is listed as “inhibited”.
